Publication PMC11003450, “Structure-property relationships of fluorinated carboxylic acid bioisosteres” (Bioorganic & medicinal chemistry letters, 2023)
Like-named read-outs stand apart in the source and are kept apart here.

Experiments:
[1] = logD7.4 by potentiometric titration (Sirius T3); settings: n-octanol/aqueous buffer
[2] = pKa by potentiometric titration (Sirius T3)
[3] = PAMPA (parallel artificial membrane permeability assay, ran by Analiza); type: in vitro ADME; settings: for Papp: PAMPA
Source text: In this work, in order to compare the properties of fluorinated carboxylic acid surrogates with those of other commonly used nonfluorinated bioisosteres, we present the design and synthesis of a focused set of matched molecular pairs (MMPs), which include examples of substituted alcohols and phenols featuring one or more fluorine atoms, and the characterization of these compounds for key physicochemical properties such as acidity (pKa), lipophilicity (logD7.4 and permeability (logPapp) in a parallel artificial membrane permeability assay (PAMPA). The data presented allow for an assessment of the impact of incorporation of fluorine on the physicochemical properties of carboxylic acid surrogates.

[4] = supplement csv; previously described derivatives A-Y; ref [3]-[5]; cited from earlier work
[5] = supplement csv; previously described phenylpropionic acid derivatives A-Y; ref [3]-[5]; cited from earlier work
[6] = pH 7.4, logD7.4, n-octanol / aqueous buffer pH 7.4, Table 1
[7] = pH 7.4, logD7.4, supplement csv, compounds 1, 2, 3-10
[8] = pKa (anilinium/aniline), anilinium/aniline pKa, Table 1
[9] = pKa (anilinium/aniline), supplement csv, first value of cell, anilinium/aniline
[10] = pKa, acidic group (carboxylic acid, alcohol or phenol), Table 1
[11] = class by Pe, read-out: PAMPA Permeability
[12] = read-out: PAMPA Pe (effective permeability)
[13] = difference between experimental and calculated pKa, experimental vs ChemAxon

Row | SMILES | pKa [4] | logD7.4 [5] | further results
1 | Nc1ccc(CCC(O)C(F)(F)F)cc1 (centres unmarked) [Compound 5] | – | – | logD [1, 6]: 1.83; logD [1, 7]: 1.83; pKa [2, 8]: 4.72; pKa [2, 9]: 4.9; pKa [2, 10]: 11.7; Papp [3, 11]: > 1.5 ×10⁻⁶ cm/s; Papp [3, 12]: 11.7 ×10⁻⁶ cm/s
2 | Oc1c(F)ccc(Cc2ccccc2)c1F [Compound W2] | 7.05 | – | –
3 | O=S(=O)(NC1(CCc2ccccc2)CSC1)c1ccccc1 [Compound H11] | >12 | 2.96 | –
4 | O=S1(=O)CC(CCc2ccccc2)(NS(=O)(=O)c2ccccc2)C1 [Compound H17] | 10.22 | 1.89 | –
5 | O=C1NC(=O)C(Cc2ccccc2)O1 (centres unmarked) [M] | 5.86 | – | –
6 | O=C1CC(=O)C(Cc2ccccc2)N1 (centres unmarked) [S] | 6.08 | – | –
7 | OC1(CCc2ccccc2)CSC1 [Compound X1] | >12 | – | –
8 | Oc1cccc(Cc2ccccc2)c1C(F)(F)F [Compound 32] | – | – | logD [1, 6]: 4.29; pKa ([2]; difference in Δ pKa between 32 and 7, Δ = isostere minus corresponding -COOH, 32 vs matched pair 7): 0.46; pKa [2, 10]: 8.91
9 | Nc1ccc(Cc2cccc(O)c2OC(F)(F)F)cc1 [Compound 8] | – | – | logD [1, 6]: 2.29; logD [1, 7]: 2.29; pKa [2, 8]: 4.58; pKa [2, 10]: 9.67; PAMPA % retention (membrane retention) [3]: 0.36%; Papp [3, 11]: > 1.5 ×10⁻⁶ cm/s; Papp [3, 12]: 8.63 ×10⁻⁶ cm/s
10 | CN(C)S(=O)(=O)Nc1cc(-c2ccccc2)on1 [Compound H21] | 5.62 | 0.42 | –
11 | S=c1[nH]c(CCc2ccccc2)no1 [Q] | 3.58 | – | –
12 | O=C1NC(=O)C(Cc2ccccc2)S1 (centres unmarked) [L] | 6.19 | – | –
13 | CS(=O)(=O)NC1(CCc2ccccc2)C[S+]([O-])C1 (centres unmarked) [Compound H13] | 9.87 | 0.87 | –
14 | CN(C)S(=O)(=O)NC1(CCc2ccccc2)C[S+]([O-])C1 (centres unmarked) [Compound H15] | 10.33 | 1.45 | –
15 | CC1=C(O)C(Cc2ccccc2)CC1=O (centres unmarked) [Compound T2] | 4.47 | -0.33 | –
16 | CN(C)S(=O)(=O)NC(=O)CCc1ccccc1 [Compound H2] | 5.79 | 0.12 | –
17 | c1ccc(CCc2nnn[nH]2)cc1 [K] | 5.09 | -0.36 | –
18 | O=S(=O)(Nc1cn(-c2ccccc2)nn1)c1ccccc1 [Compound H23] | 5.93 | 1.06 | –
19 | CS(=O)(=O)Nc1cn(-c2ccccc2)nn1 [Compound H22] | 6.34 | 0.06 | –
20 | CC1(NS(=O)(=O)CCc2ccccc2)COC1 [Compound H5] | 10.45 | 1.58 | –

Row | SMILES | pKa [4] | logD7.4 [5] | further results
21 | O=C1CC(c2ccccc2)C=C1O (centres unmarked) [Compound U2] | 8.28 | – | –
22 | CC(=O)N(O)CCc1ccccc1 [Compound A2] | 8.83 | – | –
23 | O=S(=O)(Nc1cc(-c2ccccc2)on1)c1ccccc1 [Compound H20] | 6.62 | 0.99 | –
24 | CN(C)S(=O)(=O)NC1(CCc2ccccc2)CSC1 [Compound H12] | 11.93 | 2.83 | –
25 | O=C1C=C(O)CC1Cc1ccccc1 (centres unmarked) [Compound T1] | 4.01 | -0.7 | –
26 | Oc1ccccc1SCc1ccccc1 [Compound W3] | 9.06 | 3.78 | –
27 | CS(=O)(=O)NC1(CCc2ccccc2)CS(=O)(=O)C1 [Compound H16] | 9.44 | 1.03 | –
28 | CN(C)S(=O)(=O)NC1(CCc2ccccc2)COC1 [Compound H9] | 11.02 | 1.96 | –
29 | CS(=O)(=O)NC(=O)NCc1ccccc1 [I] | 5.04 | -1.19 | –
30 | Nc1ccc(CCC(O)(C(F)F)C(F)F)cc1 [Compound 4] | – | – | logD [1, 6]: 1.46; logD [1, 7]: 1.46; pKa [2, 13]: 1 to 1.7; pKa [2, 8]: 4.79; pKa [2, 10]: > 12; PAMPA % retention (membrane retention) [3]: 0.02%; Papp [3, 11]: > 1.5 ×10⁻⁶ cm/s; Papp [3, 12]: 10.1 ×10⁻⁶ cm/s
31 | O=C1CCC(Cc2ccccc2)=C1O [Compound U1] | 8.88 | – | –
32 | O=[PH](O)CCc1ccccc1 [D] | 1.98 | – | –
33 | CC(=O)NC1(CCc2ccccc2)CS(=O)(=O)C1 [Compound H6] | >12 | 1.18 | –
34 | O=S(=O)(Cc1ccccc1)c1ccccc1O [Compound W5] | 7.12 | – | –
35 | O=S(=O)(NC1(CCc2ccccc2)C[S+]([O-])C1)c1ccccc1 (centres unmarked) [Compound H14] | – | 0.76 | –
36 | Nc1ccc(Cc2cccc(O)c2C(F)(F)F)cc1 [Compound 7] | – | – | logD [1, 6]: 3.17; logD [1, 7]: 3.17; pKa [2, 8]: 4.69; pKa [2, 10]: 8.85; PAMPA % retention (membrane retention) [3]: 0.195%; Papp [3, 11]: > 1.5 ×10⁻⁶ cm/s; Papp [3, 12]: 13.8 ×10⁻⁶ cm/s
37 | OC1(CCc2ccccc2)COC1 [Y] | >12 | – | –
38 | O=S(=O)(NC1(CCc2ccccc2)COC1)c1ccccc1 [Compound H8] | 10.29 | 2.76 | –
39 | Oc1c(F)cc(Cc2ccccc2)cc1F [Compound W1] | 7.19 | – | –
40 | Nc1ccc(CCC(O)C(F)F)cc1 (centres unmarked) [Compound 6] | – | – | logD [1, 6]: 0.92; logD [1, 7]: 0.92; pKa [2, 8]: 4.87; pKa [2, 10]: > 12; PAMPA % retention (membrane retention) [3]: 0.015%; Papp [3, 11]: > 1.5 ×10⁻⁶ cm/s; Papp [3, 12]: 10.2 ×10⁻⁶ cm/s

Row | SMILES | pKa [4] | logD7.4 [5] | further results
41 | O=c1[nH]c(CCc2ccccc2)no1 [N] | 5.73 | – | –
42 | Nc1ccc(Cc2cccc(O)c2[S+]([O-])C(F)(F)F)cc1 (centres unmarked) [Compound 10] | – | – | logD [1, 6]: 1.96; logD [1, 7]: 2; pKa [2, 8]: 4.21; pKa [2, 10]: 7.93; PAMPA % retention (membrane retention) [3]: 0.24%; Papp [3, 11]: > 1.5 ×10⁻⁶ cm/s; Papp [3, 12]: 10.5 ×10⁻⁶ cm/s
43 | O=C(CCc1ccccc1)NO [Compound A1] | 8.18 | – | –
44 | NS(=O)(=O)CCc1ccccc1 [Compound G1] | 10.04 | – | –
45 | Nc1ccc(CCC(=O)O)cc1 [Compound 2] | – | – | logD [1, 6]: -2.13; logD [1, 7]: -2.13; pKa [2, 8]: 5.17; pKa [2, 10]: 4.12; PAMPA % retention (membrane retention) [3]: 0.05%; Papp [3, 11]: < 1.5 ×10⁻⁶ cm/s
46 | Oc1cc(Cc2ccccc2)on1 [R] | 5.36 | – | –
47 | Nc1ccc(CCC(O)(C(F)(F)F)C(F)(F)F)cc1 [Compound 3] | – | – | logD [1, 6]: 3.04; logD [1, 7]: 3.14; pKa [2, 13]: 1 to 1.7; pKa [2, 8]: 4.06; pKa [2, 9]: 4.88; pKa [2, 10]: 7.96; pKa ([2]; pKa, supplement csv, acidic group, compounds 1, 2, 3-10): 9.38; PAMPA % retention (membrane retention) [3]: 0.171%; Papp [3, 11]: > 1.5 ×10⁻⁶ cm/s; Papp [3, 12]: 12 ×10⁻⁶ cm/s
48 | CN(C)S(=O)(=O)NC1(CCc2ccccc2)CS(=O)(=O)C1 [Compound H18] | 9.58 | 1.82 | –
49 | CONC(=O)CCc1ccccc1 [Compound B1] | 9.47 | – | –
50 | O=C(O)CCc1ccccc1 [Compound 1] | – | – | Papp [3, 11]: > 1.5 ×10⁻⁶ cm/s
51 | CN(C)S(=O)(=O)Nc1cn(-c2ccccc2)nn1 [Compound H24] | 6.42 | 0.69 | –
52 | Nc1ccc(Cc2cccc(O)c2SC(F)(F)F)cc1 [Compound 9] | – | – | logD [1, 6]: 2.72; logD [1, 7]: 2.72; pKa [2, 8]: 4.24; pKa [2, 10]: 9.51; Papp [3, 11]: > 1.5 ×10⁻⁶ cm/s; Papp [3, 12]: 7.28 ×10⁻⁶ cm/s
53 | [O-][S+]1CC(O)(CCc2ccccc2)C1 (centres unmarked) [Compound X2] | >12 | – | –
54 | O=S(O)CCc1ccccc1 [F] | 2.1 | – | –
55 | CS(=O)(=O)Nc1cc(-c2ccccc2)on1 [Compound H19] | 5.22 | -0.42 | –
56 | CC(=O)NOCCc1ccccc1 [Compound B2] | 9.58 | – | –
57 | O=C1CCC(O)=C1Cc1ccccc1 [Compound T3] | 4.44 | -0.6 | –
58 | O=c1[nH]c(CCc2ccccc2)ns1 [O] | 6.5 | – | –
59 | CS(=O)(=O)NC1(CCc2ccccc2)CSC1 [Compound H10] | 10.45 | 2.44 | –
60 | [O-][S+](Cc1ccccc1)c1ccccc1O (centres unmarked) [Compound W4] | 7.7 | – | –
